Consider 18 compounds from patent publication US20250129083A1, “IMIDAZOTETRAZINE COMPOUNDS AND TREATMENT OF TMZ-RESISTANT CANCERS” (THE BOARD OF TRUSTEES OF THE UNIVERSITY OF ILLINOIS, priority 2022, published 2025).

What is called half-life is how long it takes for the measured level to halve. A word on the Kp: it is the ratio of the level in a tissue or fluid to that in plasma or blood.

Where two headings read alike, the source gives them in different places.

In one data set the test system is U87 GBM cell line. In words: Cell viability assay (Alamar Blue, 7 days), U87. It counts as cell-based, human. Here is the method:
(§1) Cell Culture and Reagents. All cell lines were grown in a 37° C., 5% CO2, humidified environment, in media containing 1% penicillin/streptomycin. Stable cell line generation of GL261 MGMT+ was purchased from Creative Biogene. Cell culture conditions are as follows: cell lines U87, T98G, and RKO were grown in EMEM with 10% FBS. D54, GL261, GL261 MGMT+, and U118MG cell lines were grown in DMEM with 10% FBS. HCT116 cells were grown in RMPI with 10% FBS. D341 Med cells were grown in EMEM with 20% FBS. Temozolomide (TMZ) was purchased from AK Scientific. TMZ analogues were synthesized as described below. Compounds were dissolved in DMSO (1% final concentration, Fisher Chemical) for cell culture studies.
(§2) Cell Viability Assays. Cells were harvested, seeded in a 96-well plate and allowed to adhere. After three hours, compound was added to each well in DMSO (1% final concentration). Cells were incubated for seven days (unless otherwise noted) before viability was assessed by the Alamar Blue assay. Raptinal (20 μM) was used as a dead control.
Plated 1500 c/w for GL261; 600 c/w for U87; 600 c/w for U118MG; 1500 c/w for GL261 MGMT+ Incubated ovn and added 1 μL of compound in DMSO the next day. Incubated over 7 days; added Alamar Blue to assess cell viability and used 10 μM Raptinal as dead control. Error is SEM, n=3.
On the technique in general: Resazurin is reduced to fluorescent resorufin, in cell work by metabolically active cells.

Another data set relates to T98G GBM cell line. In words: Cell viability assay (Alamar Blue, 7 days), T98G. The data set is classed as cell-based, human. As to the method:
as §1, §2

Data set [1] in a line: Hydrolytic stability studies. It counts as physicochemical. The settings on record: PBS; for Hydrolytic stability: percentage of prodrug remaining after 2 hours: pH 7.4, 37° C., HPLC; for half-life at 100 μM: 37° C. Here is the method: Hydrolytic Stability Studies. Compound (100 μM) was incubated at 37° C. in PBS at pH 7.4 (unless otherwise noted). At the indicated time point, an aliquot was collected and analyzed by HPLC. Compound peaks were integrated and compared to the integration at to calculate the percentage of prodrug remaining.

The subject of data set [2] is linearized pBR322 plasmid DNA. The settings on record: purified linearized DNA, 15 hours at 37° C.
Excerpt: The DNA was subsequently denatured and the sample was eluted on a 1% agarose gel. Interstrand DNA cross-linkers like cisplatin prevent the full denaturation of double-stranded DNA, while DNA alkylating agents like MMS or TMZ cause DNA streaking due to shorter DNA fragments that are formed upon alkaline denaturation of abundantly alkylated DNA.
Procedure was adapted from Healy et al. (61) In brief, pBR322 plasmid DNA was linearized with EcoRI (New England BioLabs) in NEB EcoRI buffer (New England BioLabs) according to the manufacturer's instructions. The cut plasmid DNA was purified using a PCR cleanup kit (QIAquick PCR Purification Kit, Qiagen) and eluted into DNA buffer (10 mM Tris Cl, pH 8.5). The concentration of linearized DNA was quantified by measuring absorbance on a NanoDrop 2000 UV-Vis Spectrophotometer (Thermo Fisher). For each reaction, compound (in DMSO, 5% v/v) was added to DNA (150 ng) in DNA buffer (total volume 10 L) and incubated at 37° C. for the indicated time. Upon completion, 30 L DNA denaturation buffer (60 mg/mL sucrose, 10 mg/mL NaOH, and 0.4 mg/mL bromophenol blue in water) was added to each sample (the same buffer without NaOH was added to non-denatured controls). […] Gels were imaged using a Gel Dox XR+ system (Bio-Rad).
Data set [3] is described as follows: Hepatic metabolism: stability in mouse liver microsomes. The data set is classed as in vitro ADME. The settings on record: for Stability (2 h, with MLM): percentage remaining relative to t0, mouse liver microsomes, SEM, n ≥ 2; for Stability (2 h, no MLM): percentage remaining, microsomes replaced with PBS. Background: Liver microsomes are vesicles of endoplasmic reticulum, rich in cytochrome P450 enzymes.

Data set [4] relates to expanded panel of GBM cell lines with or without MGMT expression. In words: Cell viability in expanded panel of GBM cell lines. It counts as cell-based. The settings on record: 168 h; all cell lines, with or without MGMT; 7 days; read-out: IC50 values across expanded panel of GBM cell lines. Here is the method: FIG. 1A-C. Selection and evaluation of MGMT-independent imidazotetrazines. (A) IC50 values (M, 7 days) of TMZ and compound 10 in an expanded panel of GBM cell lines. Cell viability was assessed via the Alamar Blue assay, n≥3, error is SEM. (B) Hydrolytic stability of TMZ at pH 7, 7.4, and 8. Percentage of prodrug remaining was quantified by HPLC, n≥2. (C) Hydrolytic stability of compound 10 at pH 7, 7.4, and 8. Percentage of prodrug remaining was quantified by HPLC, n≥2.
FIG. 2A-F. (A) 7 day IC50 values (M) of compound 10 and CPZ in an expanded panel of GBM cell lines. Cell viability was assessed via the Alamar Blue assay, n≥3, error is SEM. (B-E) 7 day dose-response curves of TMZ and CPZ in cell lines with variable MGMT and MMR status. Error is SEM, n≥3. (F) Killing kinetics of CPZ compared to TMZ in the U87 cell line. Cells were treated with compound once and viability was assessed every 24 hours via Alamar Blue assay. Error is SEM, n≥2.
as §2

The nature of another data set: in vivo. The settings on record: CD-1 IGS, mouse, brain and serum, iv, 25 mg/kg.
The mark [5] stands for this setting: Homo sapiens, 168 h, MGMT (−), Alamar Blue, error SEM, n ≥ 3, read-out: Seven-day IC50, U87.
[6] abbreviates: Homo sapiens, T98G, 168 h, MGMT (+), Alamar Blue, error SEM, n ≥ 3, read-out: Seven-day IC50, T98G.
[7] abbreviates: Homo sapiens, 168 h, MGMT (−) MMR (+), 600 c/w, SEM, n=3, read-out: Activity, U87.
[8] abbreviates: Homo sapiens, T98G, 168 h, MGMT (+) MMR (+), read-out: Activity, T98G.
Where [9] appears, read: MGMT (+), Alamar Blue, error SEM, n ≥ 3, read-out: Seven-day IC50, T98G.

Description for in vivo: Biodistribution and Toxicity Studies. […] Brain tissue and blood were collected from each mouse and immediately acidified to prevent prodrug degradation. The concentration of each compound in the serum (FIG. 4A) and brain (FIG. 4B) were quantified by LC-MS/MS.
CD-1 IGS mice were administered compound in 5% DMSO, 10% Tween-20, and 85% SPE-PCD in sterile water (30% w/v) at 25 mg/kg via lateral tail vein injection. Fifteen minutes post injection, mice were sacrificed and blood was collected by lacerating the right auricle with iris scissors. An 18 gauge angiocatheter was inserted through the left ventricle, and all residual circulatory volume was removed by perfusing 0.9% saline solution via an analog peristaltic pump. Blood samples were immediately centrifuged at 13,000 rcf for five minutes and the supernatant collected and acidified with 8.5% aqueous H3PO4. Brains were harvested from the cranial vault, acidified with 0.3% aqueous H3PO4 and flash frozen. Homogenized brain samples were centrifuged twice at 13,000 rcf for ten minutes and supernatant and tissue debris were separated. The resultant supernatant was analyzed, along with plasma, by LC-MS/MS to determine compound concentrations.

Take `CC(C)n1nnc2c(C(N)=O)ncn2c1=O` [Compound 4, 3-isopropyl-4-oxo-3,4-dihydroimidazo[5,1-d][1,2,3,5]tetrazine-8-carboxamide]: the IC50 in the data set on U87 GBM cell line (setting [5]) and in the data set with T98G GBM cell line (setting [6]) was over 1000 µM throughout.
`NC(=O)c1ncn2c(=O)[nH]nnc12` [Compound 1, 4-oxo-3,4-dihydroimidazo[5,1-d][1,2,3,5]tetrazine-8-carboxamide]: the IC50 in the data set with U87 GBM cell line (setting [5]) and with T98G GBM cell line (setting [6]) was over 1000 µM throughout.
`C#CCn1nnc2c(C(=O)N(C)C)ncn2c1=O` [Compound 17, N,N-dimethyl-4-oxo-3-(prop-2-yn-1-yl)-3,4-dihydroimidazo[5,1-d][1,2,3,5]tetrazine-8-carboxamide]: the values for the IC50 with U87 GBM cell line (setting [7]) and in the data set on T98G GBM cell line (setting [8]) were 20 ± 5 µM and 40 ± 5 µM, respectively. Besides, in data set [1], the “Hydrolytic stability: percentage of prodrug remaining after 2 hours” value is on record as 27%.
On to `C=CC=O` [acrolein, reference compound], for which, in data set [2], the “DNA alkylation (streaking on gel)” value is “no evidence of alkylation” and the DNA interstrand cross-linking result is “interstrand cross-linking”.
Turning to `CCCn1nnc2c(C(N)=O)ncn2c1=O` [Compound 3, 4-oxo-3-propyl-3,4-dihydroimidazo[5,1-d][1,2,3,5]tetrazine-8-carboxamide], the IC50 with U87 GBM cell line (setting [5]) and in the data set with T98G GBM cell line (setting [6]) was over 1000 µM throughout. Besides, the “DNA alkylation (streaking on gel)” value in data set [2] is reported as “No evidence of DNA alkylation”.
For `CCn1nnc2c(C(N)=O)ncn2c1=O` [Compound 2, 3-ethyl-4-oxo-3,4-dihydroimidazo[5,1-d][1,2,3,5]tetrazine-8-carboxamide], the IC50 in the data set on U87 GBM cell line (setting [5]) was 470 µM; in the data set with T98G GBM cell line (setting [6]), over 1000 µM.
In the same order, the values of `NC(=O)c1ncn2c(=O)n(CCCl)nnc12` [MTZ, 3-(2-chloroethyl)-4-oxo-3,4-dihydroimidazo[5,1-d][1,2,3,5]tetrazine-8-carboxamide, reference compound] are 30 µM and 85 ± 9 µM.
Regarding `NC(=O)c1ncn2c(=O)n(COc3ccccc3)nnc12` [Compound 11, 4-oxo-3-(phenoxymethyl)-3,4-dihydroimidazo[5,1-d][1,2,3,5]tetrazine-8-carboxamide], the IC50 in the data set on U87 GBM cell line (setting [5]) is under 40 µM; in the data set with U87 GBM cell line (MGMT (−), Alamar Blue, error SEM, n ≥ 3, read-out: Seven-day IC50, U87), 21 ± 3 µM; in the data set with T98G GBM cell line (setting [6]), under 40 µM; in the data set on T98G GBM cell line (setting [9]), 35 ± 1 µM.
Regarding `C#CCn1nnc2c(C(=O)NC)ncn2c1=O` [Compound 16, N-methyl-4-oxo-3-(prop-2-yn-1-yl)-3,4-dihydroimidazo[5,1-d][1,2,3,5]tetrazine-8-carboxamide], the IC50 with U87 GBM cell line (setting [7]) is 40 ± 20 µM; with T98G GBM cell line (setting [8]), 87 ± 7 µM. In addition, the “Hydrolytic stability: percentage of prodrug remaining after 2 hours” value in data set [1] is reported as 18%.
As for `CC(C)(C)Cn1nnc2c(C(N)=O)ncn2c1=O` [Compound 6, 3-neopentyl-4-oxo-3,4-dihydroimidazo[5,1-d][1,2,3,5]tetrazine-8-carboxamide], the IC50 in the data set with U87 GBM cell line (setting [5]) and in the data set on T98G GBM cell line (setting [6]) was over 1000 µM throughout.
For the compound `CC(C)(C)n1nnc2c(C(N)=O)ncn2c1=O` [Compound 5, 3-(tert-butyl)-4-oxo-3,4-dihydroimidazo[5,1-d][1,2,3,5]tetrazine-8-carboxamide], the IC50 in the data set on U87 GBM cell line (setting [5]) was 570 ± 30 µM; in the data set with T98G GBM cell line (setting [6]), over 1000 µM.
For the compound `CC#CCn1nnc2c(C(N)=O)ncn2c1=O` [But], in data set [3], the “Stability (2 h, with MLM)” value turned out to be 89 ± 3% and the “Stability (2 h, no MLM)” value was 85 ± 1%.
For the compound `C=CCn1nnc2c(C(N)=O)ncn2c1=O` [Compound 9, 3-allyl-4-oxo-3,4-dihydroimidazo[5,1-d][1,2,3,5]tetrazine-8-carboxamide], the IC50 in the data set on U87 GBM cell line (setting [5]) was 220 ± 60 µM; with T98G GBM cell line (setting [6]), 320 ± 10 µM. Further, the “DNA alkylation (streaking on gel)” value in data set [2] is “No evidence of DNA alkylation”.
As to `CN(C)C(=O)c1ncn2c(=O)n(C)nnc12` [N,N-DiMe-TMZ, reference compound], in data set [3], the “Stability (2 h, with MLM)” value worked out at 81 ± 2% and the “Stability (2 h, no MLM)” value is reported as 92 ± 3%.
Consider `COc1ccc(-n2nnc3c(C(N)=O)ncn3c2=O)cc1` [Compound 7, 3-(4-methoxyphenyl)-4-oxo-3,4-dihydroimidazo[5,1-d][1,2,3,S]tetrazine-8-carboxamide], for which the IC50 in the data set with T98G GBM cell line (setting [6]) was under 100 µM; in the data set with T98G GBM cell line (setting [9]), 60 ± 10 µM.
In the case of `CC#CCn1nnc2c(C(N)=O)ncn2c1=O` [Compound 19, 3-(but-2-yn-1-yl)-4-oxo-3,4-dihydroimidazo[5,1-d][1,2,3,5]tetrazine-8-carboxamide], in the data set with U87 GBM cell line (setting [5]), the IC50 was 37 µM. The IC50 in the data set with T98G GBM cell line (setting [6]) worked out at 110 µM. In data set [2], the “DNA alkylation (streaking on gel)” value is listed as “Trace DNA alkylation” and the DNA interstrand cross-linking entry is listed as “definitively absent”.
In the case of `NC(=O)c1ncn2c(=O)n(CNC(=O)c3ccccc3)nnc12` [Compound 12, 3-(benzamidomethyl)-4-oxo-3,4-dihydroimidazo[5,1-d][1,2,3,5]tetrazine-8-carboxamide], the IC50 with U87 GBM cell line (setting [5]) worked out at 240 ± 20 µM; in the data set on T98G GBM cell line (setting [6]) it was 580 ± 100 µM.
`C#CCn1nnc2c(C(N)=O)ncn2c1=O` [Compound 10, 4-oxo-3-(prop-2-yn-1-yl)-3,4-dihydroimidazo[5,1-d][1,2,3,5]tetrazine-8-carboxamide]: the IC50 in the data set on U87 GBM cell line (setting [5]) was 29 µM; with T98G GBM cell line (setting [6]), 77 µM; in data set [4] it was under 100 µM. Further, the half-life at 100 μM is 97 ± 5 min in data set [1] (pH 7, calculated from hydrolytic stability data, read-out: Half-life, pH 7); about 30 min in data set [1] (pH 7.4, calculated from hydrolytic stability data, read-out: Half-life, pH 7.4); 15 ± 1 min in data set [1] (pH 8, calculated from hydrolytic stability data, read-out: Half-life, pH 8). In addition, the “Hydrolytic stability: percentage of prodrug remaining after 2 hours” value in data set [1] was found to be 8%. The compound also gave a concentration ratio (Kp) at 15 min in “in vivo” of 0.06 ± 0.01.
